The source of these data is patent US8703805B2 (Exelixis Patent Company LLC, priority 2005, dated 2014).

The test system of the assay is LXRα and/or LXRβ. The experiment in a line: LXR/LXRE co-transfection assay (luciferase reporter, CV-1 cells). The class given is cell-based, human. The note with it: IC50 or EC50 for LXR (LXRα and/or LXRβ, not distinguished), tested as described in Example 109, CV-1 cells. The method, boiled down:
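Transient co-transfection of CV-1 cells with full-length human LXRα or LXRβ plus RXRα expression plasmids and an LXREx1-Tk-luciferase reporter; compounds (10 μM screen, ≤1% DMSO) incubated 20 h at 37 °C. Luminescence read after lysis; EC50/IC50 from 8-point half-log curves, efficacy relative to a high control or DMSO.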
For the compound `CC(C)(O)c1ccc(-c2ccc(-c3cc(C(F)(F)F)nn3-c3ncccc3C(F)(F)F)s2)cc1` [Example 1253, 2-[4-(5-{3-(trifluoromethyl)-1-[3-(trifluoromethyl)pyridin-2-yl]-1H-pyrazol-5-yl}-2-thienyl)phenyl]propan-2-ol], the concentration for a half-maximal effect (EC50) was 1 to 10 µM.
Turning to `CS(=O)(=O)c1cccc(-c2ccc(-c3cc(C(F)(F)F)nn3CCN3CCOCC3)cc2)c1` [Example 1222, 4-(2-{5-[3′-(methylsulfonyl)phenyl-4-yl]-3-(trifluoromethyl)-1H-pyrazol-1-yl}ethyl)morpholine], the EC50 was under 1 µM.
The compound `CS(=O)(=O)c1cccc(-c2ccc(-c3cc(CNc4cc[nH]c(=S)n4)nn3-c3ccccc3Cl)s2)c1` [Example 545, 4-({[1-(2-chlorophenyl)-5-{5-[3-(methylsulfonyl)phenyl]-2-thienyl}-1H-pyrazol-3-yl]methyl}amino)pyrimidine-2(1H)-thione] gave an EC50 of 1 to 10 µM.
Compound `CC(C)(O)c1cc(-c2ccc(-c3cccc(S(C)(=O)=O)c3)s2)n(-c2cccc(Cl)c2Cl)n1` [Example 1281, 2-[1-(2,3-dichlorophenyl)-5-{5-[3-(methylsulfonyl)phenyl]-2-thienyl}-1H-pyrazol-3-yl]propan-2-ol] displayed an EC50 of under 1 µM.
In turn, `CC(C)(O)c1nn(-c2ccc(-c3cccc(S(C)(=O)=O)c3)cc2Cl)c(-c2c(Cl)cccc2Cl)c1Cl` [Example 1414, 2-(4-chloro-1-(3-chloro-3′-(methylsulfonyl)biphenyl-4-yl)-5-(2,6-dichlorophenyl)-1H-pyrazol-3-yl)propan-2-ol] showed an EC50 of under 1 µM.
For the compound `COC(=O)c1cccc(-n2nc(C(F)(F)F)cc2-c2ccc(-c3cccc(S(C)(=O)=O)c3)s2)c1` [Example 1186, methyl 3-[5-{5-[3-(methylsulfonyl)phenyl]-2-thienyl}-3-(trifluoromethyl)-1H-pyrazol-1-yl]benzoate], the EC50 was under 1 µM.
Compound `CC(C)(O)c1cc(-c2ccc(-c3ccc(S(N)(=O)=O)cc3)cc2)n(-c2ccccc2Cl)n1` [Example 1306, 4′-[1-(2-chlorophenyl)-3-(1-hydroxy-1-methylethyl)-1H-pyrazol-5-yl]biphenyl-4-sulfonamide] gave an EC50 of 1 to 10 µM.
In turn, `Cc1cc(-c2cc(C(C)(C)O)nn2-c2c(Cl)cccc2Cl)ccc1-c1cccc(S(C)(=O)=O)c1` [Example 1398, 2-(1-(2,6-dichlorophenyl)-5-(2-methyl-3′-(methylsulfonyl)biphenyl-4-yl)-1H-pyrazol-3-yl)propan-2-ol] gave a concentration for a half-maximal effect (EC50) of 1 to 10 µM.
In turn, `CON(C)C(=O)c1cc(-c2ccc(-c3cccc(S(C)(=O)=O)c3)s2)n(-c2ccccc2Cl)n1` [Example 1162, 1-(2-chlorophenyl)-N-methyl-N-(methyloxy)-5-{5-[3-(methylsulfonyl)phenyl]-2-thienyl}-1H-pyrazole-3-carboxamide] displayed an EC50 of under 1 µM.
For `CC(C)(O)c1cc(-c2ccc(-c3cccc(S(C)(=O)=O)c3)s2)n(-c2ccccc2OC(F)(F)F)n1` [Example 1327, 2-(5-{5-[3-(methylsulfonyl)phenyl]-2-thienyl}-1-(2-[(trifluoromethyl)oxy]phenyl}-1H-pyrazol-3-yl)propan-2-ol] the value was under 1 µM; for `CN(CC#N)Cc1cc(-c2ccc(-c3cccc(S(C)(=O)=O)c3)s2)n(-c2ccccc2Cl)n1` [Example 558, [{[1-(2-chlorophenyl)-5-{5-[3-(methylsulfonyl)phenyl]-2-thienyl}-1H-pyrazol-3-yl]methyl}(methyl)amino]acetonitrile], 1 to 10 µM.
Turning to `CC(C)(O)c1nn(-c2ccc(-c3cccc(S(C)(=O)=O)c3)cc2)c(-c2ccccc2Cl)c1Cl` [Example 110, 2-(4-chloro-5-(2-chlorophenyl)-1-(3′-(methylsulfonyl)biphenyl-4-yl)-1H-pyrazol-3-yl)propan-2-ol], the concentration giving a half-maximal response (EC50) is under 1 µM.
Regarding `CC(C)(O)c1cc(-c2ccccc2Cl)n(-c2ccc(-c3cccc(S(C)(=O)=O)c3)cn2)n1` [Example 1233, 2-[5-(2-chlorophenyl)-1-{5-[3-(methylsulfonyl)phenyl]pyridin-2-yl}-1H-pyrazol-3-yl]propan-2-ol], the EC50 fell in the range of 1 to 10 µM.
Consider `CN(C)C1CCN(C(=O)c2cc(-c3ccc(-c4cccc(S(C)(=O)=O)c4)s3)n(-c3ccccc3Cl)n2)CC1` [Example 591, 1-{[1-(2-chlorophenyl)-5-{5-[3-(methylsulfonyl)phenyl]-2-thienyl}-1H-pyrazol-3-yl]carbonyl}-N,N-dimethylpiperidin-4-amine], for which the EC50 fell in the range of 1 to 10 µM.
In the case of “1-(5-(1-(2-chlorophenyl)-3-(trifluoromethyl)-1H-pyrazol-5-yl)thiophen-2-ylsulfonyl)-4-methylpiperazine [Example 69]”, the EC50 was under 1 µM.
In the case of `CN(Cc1ccncc1)Cc1cc(-c2ccc(-c3cccc(S(C)(=O)=O)c3)s2)n(-c2ccccc2Cl)n1` [Example 547, 1-[1-(2-chlorophenyl)-5-{5-[3-(methylsulfonyl)phenyl]-2-thienyl}-1H-pyrazol-3-yl]-N-methyl-N-(pyridin-4-ylmethyl)methanamine], the EC50 was under 1 µM.
In turn, `CCN(CC)C(=O)COc1cccc(-c2ccc(-c3cc(C(C)(C)O)nn3-c3ccccc3Cl)cc2)c1` [Example 1298, 2-({4′-[1-(2-chlorophenyl)-3-(1-hydroxy-1-methylethyl)-1H-pyrazol-5-yl]biphenyl-3-yl}oxy)-N,N-diethylacetamide] yielded an EC50 of 1 to 10 µM.
The compound `CC(=O)c1ccc(-c2ccc(-c3cc(C(C)(C)O)nn3-c3ccccc3Cl)cc2)s1` [Example 1290, 1-(5-{4-[1-(2-chlorophenyl)-3-(1-hydroxy-1-methylethyl)-1H-pyrazole-5-yl]phenyl}-2-thienyl)ethanone] gave an EC50 of 1 to 10 µM.
Compound `CC(C)(O)c1cc(-c2cc(-c3cccc(S(C)(=O)=O)c3)co2)n(-c2ccccc2Cl)n1` [Example 1235, 2-[1-(2-chlorophenyl)-5-{4-[3-(methylsulfonyl)phenyl]furan-2-yl}-1H-pyrazol-3-yl]propan-2-ol] showed an EC50 of 1 to 10 µM.
The compound `CC(C)(O)c1nn(-c2c(Cl)cccc2Cl)c(-c2ccc(-c3cccc(S(C)(=O)=O)c3)cc2)c1Cl` [Example 138, 2-(4-chloro-1-(2,6-dichlorophenyl)-5-(3′-(methylsulfonyl)biphenyl-4-yl)-1H-pyrazol-3-yl)propan-2-ol] yielded an EC50 of under 1 µM.
Then `Cc1cc(-c2cccc(S(C)(=O)=O)c2)ccc1-n1nc(C(C)(C)O)c(Cl)c1-c1ccccc1C(F)(F)F` [Example 1420, 2-(4-chloro-1-(3-methyl-3′-(methylsulfonyl)biphenyl-4-yl)-5-(2-(trifluoromethyl)phenyl)-1H-pyrazol-3-yl)propan-2-ol], with under 1 µM; and `CN(Cc1cccnc1)C(=O)c1cc(-c2ccc(-c3cccc(S(C)(=O)=O)c3)s2)n(-c2ccccc2Cl)n1` [Example 1271, 1-(2-chlorophenyl)-N-methyl-5-{5-[3-(methylsulfonyl)phenyl]-2-thienyl}-N-(pyridin-3-ylmethyl)-1H-pyrazole-3-carboxamide], with 1 to 10 µM; and `CC(C)(O)c1cc(-c2ccc(-c3cccc(S(C)(=O)=O)c3)s2)n(-c2cccc(Cl)c2)n1` [Example 1256, 2-[1-(3-chlorophenyl)-5-{5-[3-(methylsulfonyl)phenyl]-2-thienyl}-1H-pyrazol-3-yl]propan-2-ol], with 1 to 10 µM.

As a reminder, the EC50 is the concentration needed to bring the measured effect to its halfway point. Low readings indicate greater potency, high ones weaker potency.
